Test results as given in patent US20080300263A1, “Pyrazolo [1,5-a] pyrimidine compounds and pharmaceutical compositions containing them” (EiRx Therapeutics plc, priority 2005, published 2008).
Like-named read-outs stand apart in the source and are kept apart here.

Columns and labels:
[1] = tested on: HCT116; experiment: EC50 titration, Alamar Blue; type: cell-based; conditions: Homo sapiens, HCT-116
Description: (§1) On the day of the assay compounds are used to prepare dilution series on Titration Plates which are plated at ten times their final screening concentration in 10 μl aliquots.
(§2) For adherent cell lines plated 24 hours previously, a 90 μl volume of the appropriate cell culture medium is then added to each well of the Titration Plates and mixed by repeated aspiration/dispensing, thus taking the compounds to their final test concentration. Once the Titration Plates have been prepared the media is removed from all wells of the cell culture plate and the contents of the Titration Plates are then transferred to the appropriate wells of their relevant Test Plates and incubated for 72 h at 37° C. and 5% CO2 after which time they are assayed by Alamar Blue. Using a combination of Microsoft Excel and Graph Pad Prism, EC50s are determined.
(§3) The EC50 values are calculated using the values obtained from the Alamar Blue readout which are converted into a “Percentage of the Untreated Control” and using Graph Pad Prism these values are plotted against the logarithm of the test concentration. Using a non-linear regression analysis a sigmoidal dose-response curve is generated from which the EC50 is determined.

[2] = tested on: LoVo; experiment: EC50 titration, Alamar Blue; type: cell-based; conditions: Homo sapiens
Description: as §1, §2, §3

[3] = tested on: C9M-TF1 cells; experiment: EC50 titration, Alamar Blue, suspension cells; type: cell-based; conditions: Homo sapiens, 72 h
Description: as §1
(§4) Suspension cells are split 24 hours prior to drug treatment in order to bring the cultures into the log phase of growth. On the day of the assay the cells are plated directly into the Titration Plates at the appropriate pre-determined seeding density (Table 1) in 90 μl volumes thus reducing the concentration of the compounds to their final test concentration. The plates are incubated for 72 hours at 37° C. and 5% CO2 after which time they are assayed by Alamar Blue.
as §3

[4] = tested on: colon cancer cell line HT29; experiment: EC50 titration, Alamar Blue, adherent cells; type: cell-based; conditions: Homo sapiens, HT-29, 72 h
Description: as §1, §2, §3

[5] = tested on: breast cancer cell line MCF7; experiment: EC50 titration, Alamar Blue, adherent cells; type: cell-based; conditions: Homo sapiens, 72 h
Description: as §1, §2, §3

[6] = tested on: non-transformed breast cell line MCF10A; experiment: EC50 titration, Alamar Blue, adherent cells; type: cell-based; conditions: Homo sapiens, MCF-10A, 72 h
Description: as §1, §2, §3

[7] = tested on: A549 Non Small Cell Lung Carcinoma; experiment: Primary high-throughput screen, Alamar Blue, adherent cells; type: cell-based; conditions: Homo sapiens, compound at 10 μM, 72 h, read-out: percentage kill, A549
Description: (§5) Adherent cells are plated at a pre-determined seeding density (Table 1) in flat-bottom 96 well plates 24 hours prior to drug treatment. The cell lines are plated in 100 μl volumes in each well. Cells are plated in all wells apart from those in Column 12 which contain 100 μL normal culture medium alone. These plates will be known as the Test Plates. The Test Plates are labelled with a Daughter Plate ID.
(§6) Daughter Plates containing 10 μl of a […] solution of test compound selected from among the candidate compounds stored at […] are thawed at room temperature. A 10 μL volume of 0.1% DMSO in PBS is added to all wells of Column 12 and the wells in Row A-F of Column 1. A 10 μl volume of a pre-determined concentration of the P13-Kinase inhibitor LY294002 is added to wells in Row G and H of Column 1. A 90 μl volume of the appropriate cell culture medium is then added to each well and mixed by repeated aspiration/dispensing. The compounds are at a final test concentration of 10 μM.
(§7) Once the Daughter Plates have been prepared the media is removed from all wells of the cell culture plate using an 8-Channel Vacuum Aspirator. The contents of the Daughter Plates are then transferred to the appropriate wells of their relevant Test Plates and the Test Plates are incubated for 72 h at 37° C. and 5% CO2. At the end of this period Test Plates are assayed by Alamar Blue. A 10 μl volume of Alamar Blue is added to all wells of the Test Plate. The Test Plates are incubated for […] at 37° C. and 5% CO2 and finally read using the BioTek SYNERGY plate reader (Excitation 530125 nm-Emission 590135 nm). Percentage inhibition is determined using Microsoft Excel spreadsheet calculations.
(§8) The figures appearing in the columns are the percentage kill achieved by that compound at 10 μM.

[8] = tested on: CACO2 Colon adenocarcinoma; experiment: as above; type: cell-based; conditions: Homo sapiens, Caco-2; compound at 10 μM, 72 h; read-out: percentage kill, CAC02
Description: as §5, §6, §7, §8

[9] = tested on: LS123 Colon adenocarcinoma (Dukes' type B); experiment: as above; type: cell-based; conditions: Homo sapiens, LS-123; compound at 10 μM, 72 h; read-out: percentage kill, LS123
Description: as §5, §6, §7, §8

[10] = tested on: HT29 Colorectal adenocarcinoma; experiment: as above; type: cell-based; conditions: Homo sapiens, HT-29; compound at 10 μM, 72 h; read-out: percentage kill, HT29
Description: as §5, §6, §7, §8

[11] = tested on: NCI ADR RES Breast adenocarcinoma (pleural effusion); experiment: as above; type: cell-based; conditions: Homo sapiens, compound at 10 μM, 72 h, read-out: percentage kill, NCI ADR RES
Description: as §5, §6, §7, §8

[12] = tested on: SW480 Colon adenocarcinoma (Dukes' type B); experiment: as above; type: cell-based; conditions: Homo sapiens, compound at 10 μM, 72 h, read-out: percentage kill, SW480
Description: as §5, §6, §7, §8

[13] = tested on: PC3 Prostate carcinoma (bone metastasis); experiment: as above; type: cell-based; conditions: compound at 10 μM, 72 h; read-out: percentage kill, PC3
Description: as §5, §6, §7, §8

[14] = tested on: U1810 Non Small Cell Lung Carcinoma; experiment: as above; type: cell-based; conditions: U-1810; compound at 10 μM, 72 h; read-out: percentage kill, U1810
Description: as §5, §6, §7, §8

[15] = tested on: MCF7 Mammary gland adenocarcinoma; experiment: as above; type: cell-based; conditions: Homo sapiens, compound at 10 μM, 72 h, read-out: percentage kill, MCF7
Description: as §5, §6, §7, §8

[16] = tested on: FRAT2 overexpresing TF1 (FRAT2-C9M-TF1 cells); experiment: Primary high-throughput screen, Alamar Blue, suspension cells; type: cell-based; conditions: Homo sapiens, compound at 10 μM, 72 h
Description: as §6, §7
(§9) Suspension cells are split 24 hours prior to drug treatment in order to bring the cultures into the log phase of growth. On the day of the assay the cells are plated directly into the Daughter Plates at the appropriate pre-determined seeding density (Table 1) in 90 μl volumes, the concentration of the test compounds thus being reduced to 10 μM. Cells are plated in all wells apart from those in Column 12 which contain 901 normal culture medium alone. The plates are incubated for 72 h at 37° C. and 5% CO2 after which time they are assayed by Alamar Blue as per the preceding example.
as §8

[17] = tested on: C9M-TF1 cells; experiment: as above; type: cell-based; conditions: Homo sapiens, 72 h, compound at 10 μM, read-out: percentage kill, C9M
Description: as §6, §7, §9, §8

[18] = tested on: FRAT2-C9M-TF1 cells; experiment: EC50 titration, Alamar Blue, suspension cells; type: cell-based, Human; conditions: for EC50: Homo sapiens, 72 h, Alamar Blue
Description: as §1, §4, §3

[19] = tested on: FRAT2-C9M-TF1 cells; experiment: LY294002 control plate titration, Alamar Blue; type: cell-based; conditions: Homo sapiens, 72 h, FIG. 8
Description: (§10) This example describes an assay to examine the effect of the PI3K inhibitor LY294002 on cell survival for both FRAT2-[…]-TF1 or […]-TF1 cells, as determined by Alamar Blue. The growth factor GMCSF mediates its survival effect through the PI3/AKT pathway. Consequently, inhibitors of this pathway will increase apoptosis in pathway-dependent cell lines. Both FRAT2-[…]-TF1 or […]-TF1 are split 24 hours prior to drug treatment in order to bring the cultures into the log phase of growth. On the day of the assay the cells are plated directly into a 96 well microtitre plates containing 10 uL volumes of a serial dilutions of LY294002, such that there was a final cell number of 5000 cells per well in 90 uL volumes thus reducing the concentration of the compounds to their final test concentration. The plates are incubated for 72 h at 37° C. and 5% CO2 after which time they are assayed by Alamar Blue. […] The overexpression of FRAT2 leads to the stabilization β-catenin through disassociation of GSK3β from Axin and through the inhibition of β-catenin phosphorylation which results in an increased level of β-catenin in the nucleus of the cell where it forms a complex with the HMB box transcription factors LEF and TCF as well as with CREB Binding Protein. […]

[20] = tested on: C9M-TF1 cells; experiment: LY294002 control plate titration, Alamar Blue; type: cell-based; conditions: Homo sapiens, 72 h, FIG. 8
Description: as §10

[21] = tested on: colon cancer; conditions: cited from earlier work
[22] = minus GMCSF, read-out: percentage kill, FRAT2−
[23] = plus GMCSF, read-out: percentage kill, FRAT2+

Compound | EC50 [1] | EC50 [3] | EC50 [4] | EC50 [5] | EC50 [6] | inhibition at 10 µM [7] | inhibition at 10 µM [8] | inhibition at 10 µM [9] | inhibition at 10 µM [10] | inhibition at 10 µM [11] | inhibition at 10 µM [12] | inhibition at 10 µM [13] | inhibition at 10 µM [14] | inhibition at 10 µM [15] | inhibition at 10 µM [16, 22] | inhibition at 10 µM [16, 23] | inhibition at 10 µM ([17]; first C9M column) | inhibition at 10 µM ([17]; second C9M column) | EC50 ([18]; absence of growth factor) | EC50 ([18]; presence of growth factor) | also measured
COc1ccc(-c2cnn3c(NCc4ccccn4)ccnc23)cc1OC [Compound 2] | 3 µM | 24 µM | 4.37 µM | 2.24 µM | 20.4 µM | 18% | 66% | 91% | 60% | 73% | 68% | 4% | 23% | 68% | 57% | 33% | -2% | 0% | 6.31 µM | 7.08 µM | EC50 [2]: 2.2 µM
COc1ccc(-c2cnn3c(NCc4ccccn4)ccnc23)cc1 [Compound 3] | 2.2 µM | 5.62 µM | 0.74 µM | 0.83 µM | 7.24 µM | 13% | 58% | 95% | 80% | 66% | 64% | -20% | 15% | 85% | 76% | 40% | 8% | -12% | 4.17 µM | 2.24 µM | EC50 [2]: 2.2 µM
COc1ccc(-c2cnn3c(NCc4ccccn4)ccnc23)cn1 [Compound 9] | – | 17.8 µM | 2 µM | 1.7 µM | 12.9 µM | 7% | 65% | 80% | 69% | 64% | 58% | 9% | 52% | 76% | 62% | 15% | 9% | -5% | 3.39 µM | 2.04 µM | –
Cc1csc(-c2cnn3c(NCc4ccccn4)ccnc23)c1 [Compound 10] | – | 22.9 µM | 1.78 µM | 1.86 µM | 20.4 µM | 8% | 25% | 89% | 68% | 52% | 51% | -45% | 16% | 77% | 71% | 16% | 14% | -8% | 5.37 µM | 4.68 µM | –
O=c1cc(N2CCOCC2)oc2c(-c3ccccc3)cccc12 [LY294002, reference compound] | 21 µM | 6.03 µM | 5.37 µM | 1.07 µM | 12.9 µM | – | – | – | – | – | – | – | – | – | – | – | – | – | 75.9 µM | 51.3 µM | EC50 [2]: 3 µM; EC50 [19]: ~50 µM; EC50 [20]: ~6 µM; difference of EC50 between FRAT2-C9M-TF1 and C9M-TF1 cells ([18]; FRAT2-C9M-TF1 cells more resistant): approx. 8.5 fold
Avastin: FDA-approved monoclonal antibody (Genentech) blocking vascular endothelial growth factor (VEGF) | – | – | – | – | – | – | – | – | – | – | – | – | – | – | – | – | – | – | – | – | lived longer than patients on the standard regimen alone [21]: about five
